Assay results from the NIST ThermoML archive (doi:10.1021/acs.jced.6b00460).
± gives the expanded uncertainty stated by the source.

Details: 101.33 kPa, Liquid; for speed of sound: Sing-around technique in a fixed-path interferometer; for mass density: Vibrating tube method

| speed of sound (308.15 K) | mass density (308.15 K) | speed of sound (318.15 K) | mass density (318.15 K) | SMILES |
| --- | --- | --- | --- | --- |
| 1507.1 ± 2.6 m/s | 1168.14 ± 2.3 kg/m3 | 1478.3 ± 2.6 m/s | 1161.81 ± 2.3 kg/m3 | CCCCCCCC[n+]1ccccc1.[Br-] [1-octylpyridinium bromide] |
| 1445.5 ± 2.6 m/s | 1107.79 ± 2.2 kg/m3 | 1411.7 ± 2.6 m/s | 1102.01 ± 2.2 kg/m3 | CCCCCCCC[n+]1ccc(C)cc1.[Cl-] [4-methyl-1-octylpyridinium chloride] |
| 1482.6 ± 2.6 m/s | 1128.78 ± 2.2 kg/m3 | 1448.6 ± 2.6 m/s | 1123.06 ± 2.2 kg/m3 | CCCCCCCC[n+]1ccccc1.[Cl-] [N-octylpyridinium chloride] |

The remaining lines, values behind:

| SMILES | speed of sound (308.15 K) | mass density (308.15 K) | speed of sound (318.15 K) | mass density (318.15 K) |
| --- | --- | --- | --- | --- |
| CCCCCC[n+]1ccc(C)cc1.[Br-] [1-hexyl-4-methylpyridinium bromide] | 1589.8 ± 2.7 m/s | 1214.46 ± 2.3 kg/m3 | 1558.7 ± 2.7 m/s | 1207.88 ± 2.3 kg/m3 |
| CCCCCC[n+]1ccccc1.[Br-] [1-hexylpyridinium bromide] | 1592.5 ± 2.7 m/s | 1235.72 ± 2.4 kg/m3 | 1557.2 ± 2.7 m/s | 1229.23 ± 2.3 kg/m3 |
| CCCCCC[n+]1ccccc1.[Cl-] [1-hexylpyridinium chloride] | 1570.7 ± 2.7 m/s | 1146.65 ± 2.3 kg/m3 | 1549.2 ± 2.7 m/s | 1142.77 ± 2.3 kg/m3 |
